# Test results published in patent US8450527B2, “Amine derivative compounds for treating ophthalmic diseases and disorders” (Acucela Inc., priority 2007, dated 2013).
# Structures can show the parent of a compound that is named as a salt.
# Columns and labels:
# visual cycle isomerase = target: T1, visual cycle isomerase (Bos taurus, UniProt Q28175); assay: In vitro isomerase inhibition assay, bovine RPE microsome membranes; assay type: biochemical; settings: inhibition of 11-cis retinol formation; values given as ranges
# T1 construct: Bovine Retinal Pigment Epithelium (RPE) microsome membranes were the source of a visual cycle isomerase; from tissue; host or cells: bovine retinal pigment epithelium microsome membranes; CRALBP made in E. coli
# T1 sequence (Q28175 2-533 limits assumed): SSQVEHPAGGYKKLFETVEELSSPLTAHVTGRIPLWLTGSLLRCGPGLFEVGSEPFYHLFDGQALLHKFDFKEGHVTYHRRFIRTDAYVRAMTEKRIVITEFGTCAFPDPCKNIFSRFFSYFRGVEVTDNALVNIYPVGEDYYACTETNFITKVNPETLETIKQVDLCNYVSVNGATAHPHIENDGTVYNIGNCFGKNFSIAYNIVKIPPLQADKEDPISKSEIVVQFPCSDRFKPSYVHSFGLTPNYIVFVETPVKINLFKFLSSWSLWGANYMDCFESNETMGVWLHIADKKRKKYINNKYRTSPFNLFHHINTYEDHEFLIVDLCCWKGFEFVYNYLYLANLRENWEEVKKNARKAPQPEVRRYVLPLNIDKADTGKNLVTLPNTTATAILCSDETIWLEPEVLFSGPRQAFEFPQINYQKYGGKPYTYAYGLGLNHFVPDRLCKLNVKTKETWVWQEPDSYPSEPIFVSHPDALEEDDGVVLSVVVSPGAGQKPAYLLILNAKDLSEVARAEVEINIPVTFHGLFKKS
# Method: The capability of amine derivative compounds to inhibit the activity of a visual cycle isomerase was determined
# Isomerase inhibition reactions were performed essentially as described (Stecher et al., J. Biol. Chem. 274:8577-85 (1999); see also Golczak et al., Proc. Natl. Acad. Sci. USA 102:8162-67 (2005)). Bovine Retinal Pigment Epithelium (RPE) microsome membranes were the source of a visual cycle isomerase.
# Bovine RPE microsome membrane extracts were prepared according to methods described (Golczak et al., Proc. Natl. Acad. Sci. USA 102:8162-67 (2005)) and stored at −80° C. Crude RPE microsome extracts were thawed in a 37° C. water bath, and then immediately placed on ice. 50 ml crude RPE microsomes were placed into a 50 ml Teflon-glass homogenizer (Fisher Scientific, catalog no. 0841416M) on ice, powered by a hand-held DeWalt drill, and homogenized ten times upand down on ice under maximum speed. This process was repeated until the crude RPE microsome solution was homogenized. The homogenate was then subjected to centrifugation (50.2 Ti rotor (Beckman, Fullerton, Calif.), 13,000 RPM; 15360 Rcf) for 15 minutes at 4° C. The supernatant was collected and subjected to centrifugation at 42,000 RPM (160,000 Rcf; 50.2 Ti rotor) for 1 hour at 4° C. The supernatant was removed, and the pellets were suspended in 12 ml (final volume) cold 10 mM MOPS buffer, pH 7.0. The resuspended RPE membranes in 5 ml aliquots were homogenized in a glass-to-glass homogenizer (Fisher Scientific, catalog no.K885500-0021) to high homogeneity. Protein concentration was quantified using the BCA protein assay according to the manufacturer's protocol (Pierce, Rockford, Ill.). The homogenized RPE preparations were stored at −80° C.
# Recombinant human apo cellular retinaldehyde-binding protein (CRALBP) was cloned and expressed according to standard methods in the molecular biology art (see Crabb et al., Protein Science 7:746-57 (1998); Crabb et al., J. Biol. Chem. 263:18688-92 (1988)). Briefly, total RNA was prepared from confluent ARPE^19 cells (American Type Culture Collection, Manassas, Va.), cDNA was synthesized using an oligo(dT)12-18 primer, and then DNA encoding CRALBP was amplified by two sequential polymerase chain reactions (see Crabb et al., J. Biol. Chem. 263:18688-92 (1988); Intres, et al., J. Biol. Chem. 269:25411-18 (1994); GenBank Accession No. L34219.1). The PCR product was sub-cloned into pTrcHis2-TOPO TA vector according to the manufacturer's protocol (Invitrogen Inc., Carlsbad, Calif.; catalog no. K4400-01), and then the sequence was confirmed according to standard nucleotide sequencing techniques. Recombinant 6×His-tagged human CRALBP was expressed in One Shot TOP 10 chemically competent E. coli cells (Invitrogen), and the recombinant polypeptide was isolated from E. coli cell lysates by nickel affinity chromatography using nickel (Ni) Sepharose XK16-20 columns for HPLC (Amersham Bioscience, Pittsburgh, Pa.; catalog no.17-5268-O2). The purified 6×His-tagged human CRALBP was dialyzed against 10 mM bis-tris-Propane (BTP) and analyzed by SDS-PAGE. The molecular weight of the recombinant human CRALBP was approximately 39 kDal.
# Amine derivative compounds and control compounds were reconstituted in ethanol to 0.1 M. Ten-fold serial dilutions (10^−2, 10^−3, 10^−4, 10^−5, 10^−6 M) in ethanol of each compound were prepared for analysis in the isomerase assay.
# The isomerase assay was performed in 10 mM bis-tris-propane (BTP) buffer, pH 7.5, 0.5% BSA (diluted in BTP buffer), 1 mM sodium pyrophosphate, 20 μM all-trans retinol (in ethanol), and 6 μM apo-CRALBP. The test compounds (2 μl) (final 1/15 dilution of serial dilution stocks) were added to the above reaction mixture to which RPE microsomes were added. The same volume of ethanol was added to the control reaction (absence of test compound). Bovine RPE microsomes (9 μl) (see above) were then added, and the mixtures transferred to 37° C. to initiate the reaction (total volume=150 μl). […]
# [1] = tested on: retinoid nuclear receptors (RAR and RxR); assay: Retinoid nuclear receptor activity
structure (smiles),measurement,setting,value
"Cc1cccc(C)c1CCc1cccc(CCCN)c1 (as salt: hydrochloride) [Example 1, 3-(3-(2,6-dimethylphenethyl)phenyl)propan-1-amine]",melting point,,106 to 108 °C
"CCC(O)(CC)CCc1cccc(CCCN)c1 [Example 2, 1-(3-(3-aminopropyl)phenyl)-3-ethylpentan-3-ol]",IC50,visual cycle isomerase,≤ 1 µM
"CC(C)(O)CCc1cccc(CCCN)c1 [Example 4, 4-(3-(3-Aminopropyl)phenyl)-2-methylbutan-2-ol]",IC50,visual cycle isomerase,1 to 10 µM
"COCCCc1cccc(CCCN)c1 [Example 5, 3-(3-(3-Methoxypropyl)phenyl)propan-1-amine]",IC50,visual cycle isomerase,1 to 10 µM
"NCCCc1cccc(CCCO)c1 [Example 6, 3-(3-(3-aminopropyl)phenyl)propan-1-ol]",IC50,visual cycle isomerase,10 to 100 µM
"CCCC(O)CCc1cccc(CCCN)c1 (stereo not drawn) [Example 8, 1-(3-(3-aminopropyl)phenyl)hexan-3-ol]",IC50,visual cycle isomerase,1 to 10 µM
"NCCOc1cccc(CCCCCCO)c1 [Example 13, 6-(3-(2-aminoethoxy)phenyl)hexan-1-ol]",IC50,visual cycle isomerase,≤ 1 µM
"NCCOc1cccc(CCCC2CCCC2)c1 [Example 14, 2-(3-(3-cyclopentylpropyl)phenoxy)ethanamine]",IC50,visual cycle isomerase,≤ 1 µM
"NCCC(O)c1cccc(CCCc2ccccc2)c1 (stereo not drawn) [Example 18, 3-amino-1-(3-(3-phenylpropyl)phenyl)propan-1-ol]",IC50,visual cycle isomerase,≤ 1 µM
"NCCCc1cccc(CCc2ccc3ccccc3c2)c1 [Example 21, 3-(3-(2-(naphthalen-2-yl)ethyl)phenyl)propan-1-amine]",IC50,visual cycle isomerase,10 to 100 µM
"NCCCc1cccc(CCc2ccccc2)c1 [Example 22, 3-(3-phenethylphenyl)propan-1-amine]",IC50,visual cycle isomerase,1 to 10 µM
"NCCCc1cccc(CCCCO)c1 [Example 23, 4-(3-(3-aminopropyl)phenyl)butan-1-ol]",IC50,visual cycle isomerase,10 to 100 µM
"NCCCc1cccc(CCC2CCCC2)c1 [Example 24, 3-(3-(2-cyclopentylethyl)phenyl)propan-1-amine]",IC50,visual cycle isomerase,≤ 1 µM
"NCCCc1cccc(CCC2CCCCC2)c1 [Example 25, 3-(3-(2-cyclohexylethyl)phenyl)propan-1-amine]",IC50,visual cycle isomerase,≤ 1 µM
"NCCCc1cccc(CCCc2ccccc2)c1 [Example 26, 3-(3-(3-phenylpropyl)phenyl)propan-1-amine]",IC50,visual cycle isomerase,≤ 1 µM
"CCCCCCc1cccc(CCCN)c1 [Example 28, 3-(3-hexylphenyl)propan-1-amine]",IC50,visual cycle isomerase,≤ 1 µM
"NCCCc1cccc(CCCCCCO)c1 [Example 30, 6-(3-(3-aminopropyl)phenyl)hexan-1-ol]",IC50,visual cycle isomerase,≤ 1 µM
"Cc1ccccc1CCc1cccc(CCCN)c1 [Example 31, 3-(3-(2-methylphenethyl)phenyl)propan-1-amine]",IC50,visual cycle isomerase,1 to 10 µM
"NCCCc1cccc(CCc2cccc(-c3ccccc3)c2)c1 [Example 32, 3-(3-(2-(Biphenyl-3-yl)ethyl)phenyl)propan-1-amine]",IC50,visual cycle isomerase,10 to 100 µM
"COCCCCCCc1cccc(CCCN)c1 [Example 33, 3-(3-(6-methoxyhexyl)phenyl)propan-1-amine]",IC50,visual cycle isomerase,≤ 1 µM
CCCCC(CCCC)c1cccc(CCCN)c1 [Example 34],IC50,visual cycle isomerase,1 to 10 µM
"NCCOc1cccc(CCc2cccnc2)c1 [Example 36, 2-(3-(2-(pyridin-3-yl)ethyl)phenoxy)ethanamine]",IC50,visual cycle isomerase,1 to 10 µM
"NCCOc1cccc(CCc2ccccn2)c1 [Example 37, 2-(3-(2-(pyridin-2-yl)ethyl)phenoxy)ethanamine]",IC50,visual cycle isomerase,1 to 10 µM
"NCCOc1cccc(CCc2cccs2)c1 [Example 38, 2-(3-(2-(thiophen-2-yl)ethyl)phenoxy)ethanamine]",IC50,visual cycle isomerase,≤ 1 µM
"Cc1cccc(C)c1NC(=O)c1cccc(CCCN)c1 [Example 166, 3-(3-aminopropyl)-N-(2,6-dimethylphenyl)benzamide]",IC50,visual cycle isomerase,100 to 1000 µM
"C/C(=C\c1ccc(C(=O)O)cc1)c1ccc2c(c1)C(C)(C)CCC2(C)C [TTNPB, E-4-[2-(5,6,7,8-tetrahydro-5,5,8,8-tetramethyl-2-naphthylenyl)-1-propenyl]benzoic acid, reference compound]",effects on retinoid nuclear receptors (RAR and RxR),[1],activated
"CC1=C(/C=C/C(C)=C/C=C/C(C)=C/C(=O)O)C(C)(C)CCC1 [at-RA, All-trans-retinoic acid, reference compound]",effects on retinoid nuclear receptors (RAR and RxR),[1],activated
